Tests used:
[1] = molecular target: T1, SK1 (Homo sapiens, UniProt Q9NYA1); design: purchased Thermo Fisher Scientific; method as in PMID 32526899; details: read-out: SK1 inhibitory effect (IC50); cited from earlier work
[2] = molecular target: T1, SK1; design: purchased Thermo Fisher Scientific; method as in PMID 32526899; details: cited from earlier work
[3] = In vitro metabolic stability, rat liver microsomes; assay type: in vitro ADME; details: pooled liver microsomes, NADPH, 37 °C, 0 and 30 min
[4] = In vitro metabolic stability, mouse liver microsomes; assay type: in vitro ADME; details: pooled liver microsomes, NADPH, 37 °C, 0 and 30 min
[5] = previous studies; cited from earlier work
[6] = In vitro metabolic stability, dog liver microsomes; assay type: in vitro ADME; details: pooled liver microsomes, NADPH, 37 °C, 0 and 30 min
[7] = tested on: A549 cells; assay: SK1 and SK2 protein (Western blotting) and mRNA (qRT-PCR) levels; assay type: cell-based, human; details: 5 and 10 μM, 24 h
Experimental: (§1) Western blotting measured changes in apoptosis-related proteins (PARP, BAX, BCL-2, Caspase-3). A549 cells (1 × 10^6 cells per well in 6-well plates) were incubated for 24 h. Cells were treated with concentrations of the compounds and incubated for 24 h. Then, cells were dissolved on ice for two hours with a lysis buffer containing a mixture of protease and phosphatase inhibitors. The lysate was centrifuged at 12,000× g for 15 min at 4 °C, and the supernatant was collected. Protein concentrations were measured using a bicinchoninic acid protein assay kit. Total protein was separated by 8–10% sodium dodecyl sulfate–polyacrylamide gel electrophoresis (SDS-PAGE) and transferred onto polyvinylidene fluoride (PVDF) membranes. After being blocked with 5% skim milk, membranes were probed overnight at 4 °C with primary antibodies against SK1, SK2, PARP, BAX, Bcl-2, Caspase-3, and β-actin. Then, the membranes were incubated with subsequent secondary antibodies at room temperature. Then, the protein expressions were measured by Amersham Imager 680 (GE Healthcare, Leiden, WZ, The Netherlands).
RNAs were isolated using the Trizol/chloroform reagent (Invitrogen, Waltham, MA, USA). […] For quantitative analysis of various genes, qRT-PCR was performed using the Bio-Rad CFX384 Touch Real-time PCR detection system (Bio-Rad, Hercules, CA, USA) with SYBR Premix Ex Taq (Takara Bio, Shiga, Japan) for 40 cycles.

[8] = tested on: A549 cells; assay: Colony formation assay; assay type: cell-based, human; details: 5 and 10 μM
Experimental: A549 cells (1 × 10^3 cells/well) were seeded into six-well plates and then each compound was treated at 5 and 10 μM for 12 h. The medium was changed every two days, and the cells were cultured in a fresh medium for 10 days. The obtained colonies were fixed with 25% glutaraldehyde for 20 min and then stained with 0.1% crystal violet for 15 min.

[9] = tested on: A549 cells; assay: Annexin V-FITC apoptosis analysis; assay type: cell-based, human; details: 24 h
Experimental: A549 cells (1 × 10^5 cells) were seeded in into a 12-well plate. […] After harvesting the cells, the binding buffer was added and then incubated with annexin-V-FITC and PI at room temperature for 15 min. The stained cells were analyzed with MACS Quant Analyzer 10 Flow Cytometer (Miltenyi Biotec, Bergisch Gladbach, Germany) within 1 h.

[10] = tested on: A549 cells; assay: Western blotting of apoptosis-related proteins; assay type: cell-based, human; details: 5 and 10 μM, 24 h
Experimental: as §1

[11] = tested on: A549 cells; assay: Cytotoxicity after SK1/SK2 siRNA transfection; assay type: cell-based, human; details: A549 cells transfected with siSK1, siSK2; 24 h
Experimental: Control small interfering RNA (siControl) was obtained from Bioneer (Daejeon, Korea), while SK1 (sc-44114) and SK2 (sc-39225) siRNA (siSK1 and siSK2) were purchased from Santa Cruz Biotechnology (Dallas, TX, USA). Cells were transfected using Lipofectamine RNAiMAX Reagent (Invitrogen, Carlsbad, CA, USA) according to the manufacturer’s instructions. Transfection efficiency was monitored by Western blot. After 24 h of infection, cytotoxicity was measured using infected cells.

[12] = molecular target: T1, SK1; assay: SK1 activity assay (Adapta screening system)
[13] = tested on: A549 cells; assay: Mitochondrial membrane potential measurement (JC-10); assay type: cell-based, human; details: 10 μM, 24 h
Experimental: To access the mechanism of cell death, Mitochondrial Membrane Potential (MMP) was performed using JC-10 cationic dye. […] Cells were collected, and 20 μM JC-10 dye prepared in HBSS solution (0.14 M NaCl, 0.005 M KCl, 0.001 M CaCl2, 0.005 M MgSO4-7H2O, 0.0004 M MgSO4-6H2O, 0.0003 M Na2HPO4-2H2O, 0.0004 M KH2PO4, 0.006 M D-glucose, 0.004 M NaHCO3, 0.002 M HEPES, and 0.02% Pluronic® F-127) was added to the cell for 30 min and mixed. The samples were protected from light and measured by using the MACS Quant Analyzer 10 Flow cytometer.

[14] = tested on: A549 cells; assay: Levels of sphingosine, ceramide and S1P (ELISA); assay type: cell-based, human; details: 5 and 10 μM
Experimental: After seeding 1 × 10^6 cells/well into a 6-well plate and incubating for 24 h, the synthetic compounds were treated by concentration. Then, cells were collected and freezing and thawing were repeated three to five times, and centrifuged supernatant was used for testing. The levels of sphingosine, ceramide, and S1P were measured according to the proposed manual using each ELISA kit (Mybiosource, Inc., San Diego, CA, USA).

[15] = tested on: A549 and H1299 cells; assay: Cell proliferation / viability assay (EZ-CYTOX)
[16] = molecular target: T2, SK2 (Homo sapiens, UniProt Q9NRA0); assay: SK2 activity assay (Adapta screening system); details: read-out: SK2 inhibitory efficacy
T2 sequence (Q9NRA0 1-654): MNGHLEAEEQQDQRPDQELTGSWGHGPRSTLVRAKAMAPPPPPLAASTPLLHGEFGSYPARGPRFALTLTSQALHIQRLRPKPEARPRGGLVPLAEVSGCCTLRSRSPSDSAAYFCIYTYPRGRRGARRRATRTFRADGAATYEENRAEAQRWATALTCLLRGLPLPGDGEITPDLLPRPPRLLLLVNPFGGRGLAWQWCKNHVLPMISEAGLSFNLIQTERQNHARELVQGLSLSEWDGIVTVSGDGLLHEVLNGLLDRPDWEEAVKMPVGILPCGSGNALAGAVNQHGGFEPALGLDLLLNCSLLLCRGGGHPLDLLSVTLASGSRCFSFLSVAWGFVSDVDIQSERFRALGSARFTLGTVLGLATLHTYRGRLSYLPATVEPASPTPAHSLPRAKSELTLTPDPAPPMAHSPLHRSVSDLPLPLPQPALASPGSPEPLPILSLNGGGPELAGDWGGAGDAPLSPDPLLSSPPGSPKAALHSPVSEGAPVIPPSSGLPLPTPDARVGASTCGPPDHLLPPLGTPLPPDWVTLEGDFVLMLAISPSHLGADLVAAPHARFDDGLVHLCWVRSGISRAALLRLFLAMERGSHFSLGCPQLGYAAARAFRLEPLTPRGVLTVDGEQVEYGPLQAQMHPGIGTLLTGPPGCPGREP

[17] = In vitro metabolic stability, human liver microsomes; details: pooled liver microsomes 0.5 mg/mL, NADPH, 37 °C, 0 and 30 min

T1 sequence (Q9NYA1 whole entry): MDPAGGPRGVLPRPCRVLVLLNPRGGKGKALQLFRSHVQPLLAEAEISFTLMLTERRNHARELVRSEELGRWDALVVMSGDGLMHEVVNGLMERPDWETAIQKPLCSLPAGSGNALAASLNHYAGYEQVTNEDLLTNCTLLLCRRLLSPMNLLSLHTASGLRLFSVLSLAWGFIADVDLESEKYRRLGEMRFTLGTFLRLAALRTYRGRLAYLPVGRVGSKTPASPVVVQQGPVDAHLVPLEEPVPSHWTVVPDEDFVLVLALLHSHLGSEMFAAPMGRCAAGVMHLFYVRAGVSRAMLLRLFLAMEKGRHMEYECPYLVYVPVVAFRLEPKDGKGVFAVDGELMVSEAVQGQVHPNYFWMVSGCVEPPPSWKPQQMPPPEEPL

In the case of `Cc1cc(CN(Cc2cc(C)cc(CS(=O)(=O)c3ccccc3)c2)c2ccc(CCO)cc2)cc(CS(=O)(=O)c2ccccc2)c1` [Compound 7], the IC50 [1] is listed as 0.14 µM and the “binding affinity for SK1 (Ka)” value [2] is listed as 3.9e+07 M⁻¹.

For `Cc1cc(CS(=O)(=O)c2ccccc2)cc(OCc2ccc(CN3CCC[C@@H]3CO)cc2)c1` [PF-543, reference compound], the “MS RLM” value [3] is given as 7.8, the “MS MLM” value [4] is given as 9.4 and the “metabolic stability (MS)” value [5] is given as “poor”. For the same compound, the “MS DLM” value [6] was 7.3.

In the case of `Cc1cc(CN(Cc2cc(C)cc(CS(=O)(=O)c3ccccc3)c2)c2ccc(CCN3CCC(O)CC3)cc2)cc(CS(=O)(=O)c2ccccc2)c1` [Compound 2, 1-(4-(Bis(3-methyl-5-((phenylsulfonyl)methyl)benzyl)amino)phenethyl)piperidin-4-ol], the “expression of proteins and mRNAs of SK1 and SK2” value [7] is reported as “did not affect”, the “MS RLM” value [3] is reported as 29.1 and the “MS MLM” value [4] is reported as 24.6. For the same compound, the colony formation [8] was “reduce colony formation in a concentration-dependent manner”, the “apoptotic effect (annexin-V)” value ([9]; 5 μM) was “significant effect” and the “apoptotic effect (annexin-V)” value ([9]; 10 μM) was “significantly higher apoptotic effect compared to PF-543”. For the same compound, the “levels of PARP, Caspase-3 and cleaved PARP” value [10] was “levels of PARP and Caspase-3 were decreased and cleavage of PARP was increased”, the “dependence of cytotoxic efficacy on SK1/SK2 (siRNA knockdown)” value [11] was “more dependent on SK1, although SK2 is also partially involved” and the “selectivity for SK1” value ([12]; SK1 vs SK2, compared to PF-543) was “lower selectivity for SK1 compared to PF-543”. The inhibition at 10 µM ([12]; read-out: SK1 inhibitory efficacy) was 39%, the “change in mitochondrial membrane potential (MMP), JC-10” value [13] was “significantly increased compared to that after treatment with PF-543” and the S1P levels [14] was “reduced”. The ceramide levels [14] was “increased”, the sphingosine levels [14] was “sphingosine expression at a level similar to that of PF-543” and the “cytotoxic effects compared with FTY720” value ([15]; 20 and 40 μM, A549 and H1299 cells) was “cytotoxic effects similar to those of FTY720”. For the same compound, the IC50 ([15]; Homo sapiens, 24 h, read-out: IC50 (cytotoxic effect)) was 7.07 µM, the inhibition at 10 µM [16] was 44% and the “MS DLM” value [6] was 18.6. The “MS HLM” value [17] was 18.1.

— publication PMC9611471 (Pharmaceutics, 2022)
